# “Also recorded” adds a separate entry of the source. Positions of bridges follow the written chain, without caps; N, C: chain ends. Residues, ends and D or L forms follow the SMILES beside them.
# Key:
# chick N-cadherin = target: T1, chick N-cadherin (Gallus gallus, UniProt P10288); assay: N-cadherin dependent neurite outgrowth of rat cerebellar neurons on N-cadherin expressing 3T3 cells (Example 14); type: cell-based; conditions: for inhibition at 125 µg/mL: 125 μg/mL; for inhibition at 125 µg/mL / inhibition at 250 µg/mL: 16-18 hours; for inhibitory activity on N-cadherin dependent neurite outgrowth, in words: Tables 8 and 9, 250 or 125 μg/mL; for inhibition at 250 µg/mL: 250 μg/mL
# T1 construct: expressed in transfected cells; host or cells: 3T3 fibroblasts
# T1 sequence (P10288 165-912): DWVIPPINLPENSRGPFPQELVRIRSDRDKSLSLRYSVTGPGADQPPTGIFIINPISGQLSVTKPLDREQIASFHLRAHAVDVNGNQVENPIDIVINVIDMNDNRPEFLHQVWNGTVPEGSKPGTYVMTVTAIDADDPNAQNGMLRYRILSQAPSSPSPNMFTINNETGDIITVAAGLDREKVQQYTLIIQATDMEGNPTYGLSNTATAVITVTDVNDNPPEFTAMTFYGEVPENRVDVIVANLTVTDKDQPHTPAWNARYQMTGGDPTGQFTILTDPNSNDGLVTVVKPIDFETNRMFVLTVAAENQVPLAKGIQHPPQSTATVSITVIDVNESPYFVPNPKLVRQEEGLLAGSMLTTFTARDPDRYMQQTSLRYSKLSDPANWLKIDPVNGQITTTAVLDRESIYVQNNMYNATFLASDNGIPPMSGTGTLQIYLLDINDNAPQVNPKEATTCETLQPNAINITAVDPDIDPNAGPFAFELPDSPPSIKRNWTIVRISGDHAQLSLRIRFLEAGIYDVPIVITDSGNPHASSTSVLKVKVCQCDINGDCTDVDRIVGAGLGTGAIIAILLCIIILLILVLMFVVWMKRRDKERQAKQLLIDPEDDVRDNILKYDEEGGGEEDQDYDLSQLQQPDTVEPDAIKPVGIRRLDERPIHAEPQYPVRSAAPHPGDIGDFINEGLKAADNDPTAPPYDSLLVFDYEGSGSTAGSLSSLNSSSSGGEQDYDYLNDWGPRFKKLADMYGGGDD
# Procedure: (§1) Cell culture and neurite outgrowth assays. Co-cultures of cerebellar neurons on monolayers of control 3T3 cells and monolayers of transfected 3T3 cells that express physiological levels of chick N-cadherin or human L1 were established as previously described (Williams et al., Neuron 13:583-594, 1994). In brief, 80,000 3T3 cells (control and transfected) were plated into individual chambers of an eight-chamber tissue culture slide coated with polylysine and fibronectin and cultured in DMEM/10% FCS. After 24 hours, when confluent monolayers had formed, the medium was removed and 3000 cerebellar neurons isolated from post-natal day 2-3 rats were plated into each well in SATO media (Doherty et al., Nature 343:464-466, 1990) supplemented with 2% FCS. All of the test peptides were added immediately before the neurons as a 2×stock prepared in SATO/2% FCS. The co-cultures were maintained for 16-18 hours, at which time they were fixed and immunostained for GAP-43 which is present only in the neurons and delineates the neuritic processes. The mean length of the longest neurite per cell was measured for 150-200 neurons sampled in replicate cultures as previously described (Williams et al., Neuron 13:583-594, 1994). […] Dose-response curves were evaluated and the EC50 values determined.
# Effects of cyclic HAV peptides on N-cadherin function. The ability of N-Ac-CHAVC-NH2 (SEQ ID NO:10; compound 1) to inhibit neurite outgrowth was initially tested. This cyclic peptide has the cadherin CAR sequence (HAV) and no flanking amino acid residues. Neurons were cultured on confluent monolayers of control (untransfected) and N-cadherin expressing 3T3 cells for 16-18 hours. The cells were then fixed and the length of the longest neurite on 150-200 neurons was determined by standard assay, as described above. FIG. 24 gives the mean neurite length in a representative experiment where cerebellar neurons have been cultured over control and N-cadherin expressing cells. In the absence of peptide, the mean length of the longest neurite per cell was approximately double on the N-cadherin expressing cells, as compared to 3T3 cells. This response requires N-cadherin function in both the neuron and transfected fibroblast.
# L1 = L1 (Homo sapiens, UniProt P32004); assay: L1 response: neurite outgrowth of rat cerebellar neurons on L1 expressing 3T3 cells (Example 14); type: cell-based; parameters: expressed in transfected cells; host or cells: 3T3 cells (stably transfected); conditions: 100 μg/mL, concentrations that substantially inhibited the N-cadherin response
# Chain of L1 (P32004 20-1257): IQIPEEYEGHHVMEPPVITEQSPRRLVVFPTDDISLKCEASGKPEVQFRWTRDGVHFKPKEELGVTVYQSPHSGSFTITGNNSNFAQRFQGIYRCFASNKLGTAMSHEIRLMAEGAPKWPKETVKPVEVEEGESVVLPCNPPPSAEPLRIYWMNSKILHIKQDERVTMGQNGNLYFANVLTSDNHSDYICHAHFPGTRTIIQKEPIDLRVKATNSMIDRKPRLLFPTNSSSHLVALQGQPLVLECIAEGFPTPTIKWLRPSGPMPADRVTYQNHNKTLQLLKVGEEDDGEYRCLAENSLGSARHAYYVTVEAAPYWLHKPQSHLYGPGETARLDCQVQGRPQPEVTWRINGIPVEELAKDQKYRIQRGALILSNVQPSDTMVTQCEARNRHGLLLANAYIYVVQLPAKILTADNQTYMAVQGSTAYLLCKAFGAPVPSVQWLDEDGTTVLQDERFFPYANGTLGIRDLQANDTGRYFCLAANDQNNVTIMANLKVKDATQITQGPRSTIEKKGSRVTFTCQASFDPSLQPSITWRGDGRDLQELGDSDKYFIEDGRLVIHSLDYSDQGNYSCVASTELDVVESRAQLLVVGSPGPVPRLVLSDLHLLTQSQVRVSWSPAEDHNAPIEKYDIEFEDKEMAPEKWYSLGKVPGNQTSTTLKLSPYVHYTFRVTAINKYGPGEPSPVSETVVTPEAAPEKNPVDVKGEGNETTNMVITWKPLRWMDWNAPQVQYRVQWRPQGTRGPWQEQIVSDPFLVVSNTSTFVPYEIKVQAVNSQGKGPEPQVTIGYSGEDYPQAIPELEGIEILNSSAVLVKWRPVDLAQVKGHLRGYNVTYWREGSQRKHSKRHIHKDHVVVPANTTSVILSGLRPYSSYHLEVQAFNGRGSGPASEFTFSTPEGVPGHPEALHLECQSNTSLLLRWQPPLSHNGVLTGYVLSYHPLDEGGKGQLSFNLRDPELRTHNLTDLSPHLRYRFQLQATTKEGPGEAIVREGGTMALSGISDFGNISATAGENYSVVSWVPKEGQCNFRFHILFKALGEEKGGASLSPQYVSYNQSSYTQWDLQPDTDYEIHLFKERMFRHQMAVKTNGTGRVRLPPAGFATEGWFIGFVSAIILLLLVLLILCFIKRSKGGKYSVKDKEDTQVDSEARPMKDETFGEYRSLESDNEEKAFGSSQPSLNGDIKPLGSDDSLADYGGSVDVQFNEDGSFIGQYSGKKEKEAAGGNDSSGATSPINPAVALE
# Procedure: FIG. 26 is a bar graph illustrating the effects of the cyclic peptides N-Ac-CHAVDC-NH2 (SEQ ID NO:11), N-Ac-CHAVDIC-NH2 (SEQ ID NO:62) and N-Ac-[…]-NH2 (SEQ ID NO:63) on L1 function. Cerebellar neurons were cultured on monolayers of control 3T3 cells and L1 expressing 3T3 cells for 16-18 hours in control media (unshaded) or control media supplemented with peptides N-Ac-CHAVDC-NH2 (SEQ ID NO:11; diagonal rising right), N-Ac-CHAVDIC-NH2 (SEQ ID NO:62); diagonal cross hatch) or N-Ac-[…]-NH2 (SEQ ID NO:63; diagonal rising left) at a concentration of 100 μg/mL. The cultures were then fixed and neurite outgrowth determined by measuring the length of the longest neurite from a total of 150-200 neurons sampled in replicate cultures for each experimental condition. […] The results are pooled from three independent experiments, and the bars show the s.e.m.
# as §1, with “The co-cultures were maintained for 16-18 hours, at which time they were fixed and immunostained for GAP-43 which is present only in the neurons and delineates the neuritic processes.” left out, “determined. […]” for “determined.”
# [1] = tested on: bovine pulmonary artery endothelial cells; assay: Disruption of bovine endothelial cell adhesion; type: cell-based; conditions: 500 μg/ml, 30 minutes
# Procedure: For use within one such assay, bovine pulmonary artery endothelial cells may be harvested by sterile ablation and digestion in 0.1% collagenase (type II; Worthington Enzymes, Freehold, N.J.). Cells may be maintained in Dulbecco's minimum essential medium supplemented with 10% fetal calf serum and 1% antibiotic-antimycotic at 37° C. in 7% CO2 in air. Cultures may be passaged weekly in trypsin-EDTA and seeded onto tissue culture plastic at 20,000 cells/cm^2. Endothelial cultures may be used at 1 week in culture, which is approximately 3 days after culture confluency is established. The cells may be seeded onto coverslips and treated (e.g., for 30 minutes) with modulating agent or a control compound at, for example, 500 μg/ml and then fixed with 1% paraformaldehyde. As noted above, disruption of cell adhesion may be determined visually within 24 hours, by observing retraction of the cells from one another. This assay evaluates the effect of a modulating agent on N-cadherin mediated cell adhesion.
# Bovine pulmonary artery endothelial cells were harvested by sterile ablation and digestion in 0.1% collagenase (type II; Worthington Enzymes, Freehold, N.J.). Cells were maintained in Dulbecco's […] essential medium (Clonetics, San Diego, Calif.) supplemented with 10% fetal calf serum (Atlantic Biologicals, Nor cross, Ga.) and 1% antibiotic-antimycotic at 37° C. in 7% CO2 in air. Cultures were passaged weekly in trypsin-EDTA (Gibco, Grand Island, N.Y.) and seeded onto tissue culture plastic at 20,000 cells/cm^2 for all experiments. Endothelial cultures were used at 1 week in culture, which is approximately 3 days after culture confluency was established. The cells used in all protocols were between 4th passage and 10th passage. The cells were seeded onto coverslips and treated 30 minutes with N-Ac-CHAVC-NH2 (SEQ ID NO:10) or N-Ac-CHGVC-NH2 (SEQ ID NO:20) at 500 μg/ml and then fixed with 1% paraformaldehyde.
# [2] = tested on: angiogenesis in chick embryonic chorioallantoic membranes; assay: Chick chorioallantoic membrane angiogenesis assay; type: in vivo; conditions: for percent inhibition of angiogenesis: 24 hours
# Procedure: The chick chorioallantoic membrane assay was used to assess the effects of cyclic peptides on angiogenesis (Iruela-Arispe et al., Molecular Biology of the Cell 6:327-343, 1995). Cyclic peptides were embedded in a mesh composed of vitrogen at concentrations of 3, 17, and 33 μg/mesh. The meshes were then applied to 12-day-old chick embryonic chorioallantoic membranes. After 24 hours, the effects of the peptides on angiogenesis were assessed by computer assisted morphometric analysis.
# For each concentration of cyclic peptide, the percent inhibition of angiogenesis (relative to the level of angiogenesis in the absence of cyclic peptide) is provided. Assays were performed in the presence (+) or absence (−) of […] VEGF. For example, the cyclic peptide N-Ac-CHAVC-NH2 (SEQ ID NO:10) inhibited angiogenesis by 46%, 51%, and 51% at concentrations of 3, 17, and 33 μg/mesh, respectively.
# in vitro [3] = type: cell-based; conditions: human
# Procedure: (§2) N-Ac-CHAVC-NH2 (SEQ ID NO:10) and the control peptide N-Ac-CHGVC-NH2 (SEQ ID NO:20) were evaluated for possible cytotoxic effects on human microvascular endothelial (HMVEC; Clonetics), human umbilical vein endothelial (HUVEC; ATCC #CRL-1730), IAFp2 (human fibroblast cell line; Institute Armand-Frapier, Montreal, Quebec), WI-38 (human fibroblast cell line; ATCC #CCL-75), MDA-MB231 (human breast cancer cell line; ATCC #HTB-26), and PC-3 (human prostate cancer cell line; ATCC #CRL-1435) cells utilizing the MTT assay (Plumb et al., Cancer Res. 49:4435-4440, 1989). Neither of the peptides was cytotoxic at concentrations up to and including 100 μM. Similarly, neither of the peptides was capable of inhibiting the proliferation of the above cell lines at concentrations up to 100 μM, as judged by ^3H-thymidine incorporation assays.
# in vitro [4] = type: cell-based; conditions: human; remark: listed apart in the source
# Procedure: as §2
# in vitro [5] = type: cell-based; conditions: human; remark: listed apart in the source
# Procedure: as §2
# in vitro [6] = type: cell-based; conditions: human; remark: listed apart in the source
# Procedure: as §2
Compound,"inhibition at 33 µg/mL (chick N-cadherin; NIH3T3, 33 μg/mL)",inhibition at 125 µg/mL (chick N-cadherin; NIH3T3),inhibition at 250 µg/mL (chick N-cadherin; NIH3T3),"reduction in inhibitory activity on flanking HAV with E-cadherin amino acids (chick N-cadherin; Table 8, 250 μg/mL)",IC50 (in vitro [3]),IC50 (in vitro [4]),IC50 (in vitro [5]),IC50 (in vitro [6]),EC50 (chick N-cadherin; from dose-response curve),"inhibitory activity on N-cadherin dependent neurite outgrowth, in words (chick N-cadherin)",effect on L1 response (neurite outgrowth over L1 expressing 3T3 cells) (L1),effect on endothelial cell monolayer / morphology [1],"percent inhibition of angiogenesis ([2]; 3 μg/mesh, absence (−) of 0.01 mM VEGF)","percent inhibition of angiogenesis ([2]; 3 μg/mesh, presence (+) of 0.01 mM VEGF)","percent inhibition of angiogenesis ([2]; 17 μg/mesh, absence (−) of 0.01 mM VEGF)","percent inhibition of angiogenesis ([2]; 17 μg/mesh, presence (+) of 0.01 mM VEGF)","percent inhibition of angiogenesis ([2]; 33 μg/mesh, absence (−) of 0.01 mM VEGF)","percent inhibition of angiogenesis ([2]; 33 μg/mesh, presence (+) of 0.01 mM VEGF)","inhibition of angiogenesis, in words ([2]; 3, 17, and 33 μg/mesh)"
CC(=O)N[C@H]1CSSC[C@@H](C(N)=O)NC(=O)[C@H](CC(=O)O)NC(=O)[C@H](C(C)C)NC(=O)[C@H](C)NC(=O)[C@H](Cc2c[nH]cn2)NC1=O [N-Ac-CHAVDC-NH2] (Ac-CHAVDC-NH2; disulfide 1-6),28.5%,77.1 ± 8.4%,–,–,–,–,–,–,–,dramatically increased the inhibitory activity; also recorded: potent inhibitors of neurite outgrowth,did not interfere with the ability of neurons to extend neurites over 3T3 cells expressing L1; also recorded: not inhibited,–,–,–,–,–,–,–,–
"CC(=O)N[C@H]1CSSC[C@@H](C(N)=O)NC(=O)[C@H](CC(=O)O)NC(=O)[C@H](C(C)C)NC(=O)CNC(=O)[C@H](Cc2c[nH]cn2)NC(=O)[C@H](C)NC1=O [N-Ac-CAHGVDC-NH2, reference compound] (Ac-CAHGVDC-NH2; disulfide 1-7)",–,–,4 ± 6.9%,–,> 100 µM,> 100 µM,> 100 µM,> 100 µM,–,–,–,inactive,–,–,–,–,–,–,–

# Further lines, with some results ahead:
"inhibition at 33 µg/mL (chick N-cadherin; NIH3T3, 33 μg/mL)",inhibition at 125 µg/mL (chick N-cadherin; NIH3T3),inhibition at 250 µg/mL (chick N-cadherin; NIH3T3),"reduction in inhibitory activity on flanking HAV with E-cadherin amino acids (chick N-cadherin; Table 8, 250 μg/mL)",IC50 (in vitro [3]),IC50 (in vitro [4]),IC50 (in vitro [5]),IC50 (in vitro [6]),EC50 (chick N-cadherin; from dose-response curve),Compound,"inhibitory activity on N-cadherin dependent neurite outgrowth, in words (chick N-cadherin)",effect on L1 response (neurite outgrowth over L1 expressing 3T3 cells) (L1),effect on endothelial cell monolayer / morphology [1],"percent inhibition of angiogenesis ([2]; 3 μg/mesh, absence (−) of 0.01 mM VEGF)","percent inhibition of angiogenesis ([2]; 3 μg/mesh, presence (+) of 0.01 mM VEGF)","percent inhibition of angiogenesis ([2]; 17 μg/mesh, absence (−) of 0.01 mM VEGF)","percent inhibition of angiogenesis ([2]; 17 μg/mesh, presence (+) of 0.01 mM VEGF)","percent inhibition of angiogenesis ([2]; 33 μg/mesh, absence (−) of 0.01 mM VEGF)","percent inhibition of angiogenesis ([2]; 33 μg/mesh, presence (+) of 0.01 mM VEGF)","inhibition of angiogenesis, in words ([2]; 3, 17, and 33 μg/mesh)"
–,–,-12.6 ± 6.4%,complete,> 100 µM,> 100 µM,> 100 µM,> 100 µM,–,CC(=O)N[C@H]1CSSC[C@@H](C(N)=O)NC(=O)[C@H](CO)NC(=O)[C@H](CO)NC(=O)[C@H](C(C)C)NC(=O)[C@H](C)NC(=O)[C@H](Cc2c[nH]cn2)NC(=O)[C@H](CO)NC1=O (Ac-CSHAVSSC-NH2; disulfide 1-8),–,–,disrupted the endothelial cell monolayer; also recorded: retracted from one another and round up,1%,−3%,−3%,12%,17%,7%,relatively inactive
–,–,-5.6 ± 5.9%,–,> 100 µM,> 100 µM,> 100 µM,> 100 µM,–,CC(=O)N[C@H]1CSSC[C@@H](C(N)=O)NC(=O)[C@H](CO)NC(=O)[C@H](CO)NC(=O)[C@H](C(C)C)NC(=O)CNC(=O)[C@H](Cc2c[nH]cn2)NC(=O)[C@H](CO)NC1=O [reference compound] (Ac-CSHGVSSC-NH2; disulfide 1-8),–,–,inactive,–,–,–,–,–,–,–
–,88.3 ± 7.5%,–,–,–,–,–,–,60 µM,CC[C@H](C)[C@@H]1NC(=O)[C@H](CC(=O)O)NC(=O)[C@H](C(C)C)NC(=O)[C@H](C)NC(=O)[C@H](Cc2c[nH]cn2)NC(=O)[C@@H](NC(C)=O)CSSC[C@@H](C(N)=O)NC1=O [N-Ac-CHAVDIC-NH2] (Ac-CHAVDIC-NH2; disulfide 1-7),further increased activity; also recorded: potent inhibitors,did not interfere with the ability of neurons to extend neurites over 3T3 cells expressing L1; also recorded: not inhibited,–,–,–,–,–,–,–,–
